Patent publication US20140213576A1, “NOVEL COMPOUND USEFUL FOR THE TREATMENT OF DEGENERATIVE AND INFLAMMATORY DISEASES” (GALAPAGOS NV, priority 2013, published 2014)

Biological target: T1, JAK3 (Homo sapiens, UniProt P52333)
T1 construct: purchased Carna Biosciences 09CBS-0625B
T1 sequence (P52333 1-1124): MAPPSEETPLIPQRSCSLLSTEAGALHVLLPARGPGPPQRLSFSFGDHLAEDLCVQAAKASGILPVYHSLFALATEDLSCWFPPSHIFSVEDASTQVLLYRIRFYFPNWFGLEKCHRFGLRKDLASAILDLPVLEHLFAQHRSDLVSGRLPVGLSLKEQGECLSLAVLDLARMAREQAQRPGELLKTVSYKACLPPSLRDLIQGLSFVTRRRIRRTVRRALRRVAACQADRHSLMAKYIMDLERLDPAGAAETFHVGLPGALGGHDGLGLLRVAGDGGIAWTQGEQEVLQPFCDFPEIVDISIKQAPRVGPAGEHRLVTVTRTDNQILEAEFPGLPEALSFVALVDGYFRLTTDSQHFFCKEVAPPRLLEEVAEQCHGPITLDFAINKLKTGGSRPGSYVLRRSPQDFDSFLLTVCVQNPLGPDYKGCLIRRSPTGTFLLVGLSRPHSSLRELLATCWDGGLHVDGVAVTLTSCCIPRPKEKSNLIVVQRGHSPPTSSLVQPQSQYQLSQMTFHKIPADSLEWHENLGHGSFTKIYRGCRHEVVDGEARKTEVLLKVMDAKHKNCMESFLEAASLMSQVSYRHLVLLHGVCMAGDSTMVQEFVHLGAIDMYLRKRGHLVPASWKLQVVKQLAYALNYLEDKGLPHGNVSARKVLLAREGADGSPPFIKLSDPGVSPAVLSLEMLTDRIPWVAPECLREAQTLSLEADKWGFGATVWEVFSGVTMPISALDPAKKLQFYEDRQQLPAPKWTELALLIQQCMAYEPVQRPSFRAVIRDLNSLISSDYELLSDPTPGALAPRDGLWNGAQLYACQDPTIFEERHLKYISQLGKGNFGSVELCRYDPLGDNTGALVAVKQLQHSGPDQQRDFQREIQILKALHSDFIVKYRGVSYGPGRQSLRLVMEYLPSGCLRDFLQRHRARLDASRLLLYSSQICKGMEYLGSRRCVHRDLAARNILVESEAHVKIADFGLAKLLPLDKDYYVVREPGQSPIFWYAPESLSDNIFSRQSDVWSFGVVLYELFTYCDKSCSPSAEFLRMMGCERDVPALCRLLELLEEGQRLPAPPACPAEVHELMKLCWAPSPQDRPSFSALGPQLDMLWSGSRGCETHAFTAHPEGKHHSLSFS
Assay: JAK3 Ki determination assay
Assay type: biochemical
Conditions: Lineweaver-Burk, varying ATP, polyGT substrate; read-out: Ki against JAK3
Experimental: For the determination of Ki, different amounts of compound were mixed with the enzyme and the enzymatic reaction was followed as a function of ATP concentration. The Ki was determined by means of double reciprocal plotting of Km vs compound concentration (Lineweaver-Burk plot). JAK3 (Carna Biosciences, 09CBS-0625B) was used at a final concentration of 10 ng/mL. The substrate was Poly(Glu,Tyr)sodium salt (4:1), MW 20 000-50 000 (Sigma, P0275) The reaction was performed in 25 mM Tris pH 7.5, 0.01% Triton X-100, 0.5 mM EGTA, 2.5 mM DTT, 0.5 mM Na3VO4, 5 mM b-glycerolphosphate, 10 mM MgCl2 with varying concentrations of ATP and compound and stopped by addition of 150 mM phosphoric acid. Measurement of incorporated phosphate into the substrate polyGT was done by loading the samples on a filter plate (using a harvester, Perkin Elmer) and subsequent washing. Incorporated ^33P in polyGT was measured in a Topcount scintillation counter after addition of scintillation liquid to the filter plates (Perkin Elmer).

`CCc1cc(C2CN(S(C)(=O)=O)C2)ncc1N(C)c1cc2c(cn1)ncn2C` [Compound 1, [4-Ethyl-6-(1-methanesulfonyl-azetidin-3-yl)-pyridin-3-yl]-methyl-(1-methyl-1H-imidazo[4,5-d]pyridin-6-yl)-amine] was tested, and the Ki was 685 nM.
